Reference: patent publication US20150087627A1, “COMBINATION OF KINASE INHIBITORS AND USES THEREOF” (Intellikine LLC, priority 2011, published 2015)
Where “and” joins values, the source holds several entries; their conditions need not be identical. Equal entries are not always repeated.

Experiments:
[1] = system: MDA-MB-361 human breast cancer xenografts; assay: Antitumor activity and tumor regrowth, MDA-MB-361 xenografts (Example 42); assay type: in vivo, Mus musculus; conditions: for MTV on Day 65: n = 4; for % TGI on Day 65: based on the control group on Day 65; for TGI: Day 29
Protocol: (room temperature), shielded from light. The test article Compound A was prepared in 5% NMP+95% PEG400 every 5 to 7 days and stored at approximately 25° C. (room temperature), shielded from light. The control article used in this study was 5% NMP+95% PEG400. Compounds were completely dissolved in NMP by sonication, followed by the addition of an appropriate volume of PEG400, and the final solution was vortexed and sonicated to ensure thorough mixing.
Low-passage MDA-MB-361 cells were grown in Eagle's Minimal Essential Medium (EMEM) media supplemented with 20% fetal bovine serum (FBS) and 1× penicillin/streptomycin (Invitrogen, Carlsbad, Calif., USA) until approximately 80% confluency was reached. Before injection, the cells were detached with GIBCO® trypsin (Invitrogen), washed twice with phosphate-buffered saline (PBS), and resuspended in Roswell Park Memorial Institute (RPMI) media (Invitrogen) without supplements. Cells were resuspended to a final concentration of 5×10^7 cells/mL in RPMI media without supplements. MDA-MB-361 cells (5.0×10^6 cells/animal in 0.1-mL injection volume) were implanted SC into the flank of female athymic nu/nu nude mice. The animals used in this study are described in the following table.
Female 5 to 6-week old female (athymic nu/nu) nude mice were inoculated SC in the flank with 5.0×10^6 MDA-MB-361 cells. Tumor growth was monitored with vernier calipers. The MTV was calculated using the formula V=W^2×L÷2. When the MTV reached approximately 235 mm^3, the animals were randomized into 4 treatment groups (n=8/group). Treatment started on Day 0. […] Tumor growth and body weight were measured twice weekly. Percent TGI and body weight change were calculated on Day 29. Four mice from each group were euthanized on Day 29 and tissues were harvested for pharmacodynamic studies. The remaining mice continued on study until Day 65, and tumor size and body weight in these mice were measured every 9 to 11 days.
Antitumor activity was determined by calculating the percent TGI using Equation 1: Percent TGI)=(MTV of the control group−MTV of a treated group) MTV of the control group×100
Tumor growth delay was determined by calculating the time until MTV in a given treatment group reached 1000 mm^3 versus the time until MTV in the control group reached 1000 mm^3.
The differences in trends of tumor growth over time between pairs of treatment groups were assessed using linear mixed-effects regression models. These models account for the fact that each animal was measured at multiple time points. A separate model was fit for each comparison, and the AUC for each treatment group was calculated using the predicted values from the model. The percent decrease in AUC (ΔAUC) relative to the reference group was then calculated.
A statistical analysis was performed with a linear mixed-effects regression model that takes into account the differences in trends of tumor growth between control and treated samples. Differences among mice were treated as random effects, and a compound symmetry covariance structure was used to model the variability between repeated tumor measurements for each mouse. Treatment comparisons were performed by using the fitted curves from the model to calculate the ΔAUC. The significance of the ΔAUC was assessed using permutation testing. All p values less than 0.05 were considered significant.
A combination score calculation was used to address the question of whether the effects of the combination treatments were more than additive (synergistic), additive, or subadditive (antagonistic) relative to the individual treatments. […] All p values less than 0.05 were considered significant.

[2] = system: PI3 kinase signaling pathway in MDA-MB-361, HCC-1419, NCI-H1048; assay: Cellular signaling immunoblot in human tumor cell lines; assay type: cell-based; conditions: Compound B 5-100 nM, Compound A 1 and 3 μM, 2 or 24 hours, Western blot, FIG. 15
Protocol: Compound A was synthesized at Intellikine and was supplied as a stock of 10 mM in 100% DMSO and diluted in the respective cell line's growth media.
Prior to treatment, cells were plated at 2×10^5 cells/well in 12-well plates in normal growth media and grown to 80% confluence.
Media was aspirated, cells were washed with 1×PBS, Ice cold 1× Cell Lysis Buffer was prepared from 10× stock and 100 μM 4-(2-Aminoethyl)benzenesulfonyl fluoride hydrochloride (AEBSF) and 1 mM sodium orthovanadate […] was added. Cells were lysed by adding 1× Cell Lysis Buffer (100 μL per well of 12-well plate of cells). Cells incubated on ice for 20 to 30 minutes to allow complete lysis, and lysates were transferred to microcentrifuge tubes, sonicated for 10 seconds, and subjected to microcentrifugation at 14,000×g for 10 minutes at 4° C. Cleared supernatants were transferred to fresh tubes, and stored at −20° C. for Western blot analysis. […] Molecular weight markers were loaded, the gel electrophoresed at 200V for 40 minutes.
The gels were electrotransferred to nitrocellulose membranes, and incubated in blocking buffer (Tris buffered saline plus 0.5% Tween-20 (TBS/T)+5% bovine serum albumin (BSA)) for 1 hour at room temperature. […]

[3] = system: KRAS/PIK3CA colon model; assay: KRAS/PIK3CA colon model (FIG. 19); assay type: in vivo

SMILES | MTV on Day 65 ([1]; 60 mg/kg PO QD until Day 29, regrowth) | % TGI on Day 65 ([1]; 60 mg/kg PO QD until Day 29) | TGI ([1]; 60.0 mg/kg PO QD) | inhibition of phosphorylation of downstream targets AKT, S6, 4E-BP1 [2] | activity in a KRAS/PIK3CA colon model [3] | TGI ([1]; 0.3 mg/kg PO QD for 30 days) | MTV on Day 65 ([1]; 0.3 mg/kg PO QD until Day 29, regrowth) | % TGI on Day 65 ([1]; 0.3 mg/kg PO QD until Day 29) | MTV on Day 29 ([1]; 0.3 mg/kg PO QD, n = 8)
Nc1nc2cc(-c3ccc4ncc(C(=O)N5CCOCC5)n4c3)ccc2o1 [Compound A] | 500 mm^3 and 511.4 ± 568^ mm^3 | 69.5% | 77.4% | potently inhibited | not effective | – | – | – | –
CC(C)n1nc(-c2ccc3oc(N)nc3c2)c2c(N)ncnc21 [Compound B] | – | – | – | potently inhibited | not effective | 71.1% | 649.6 ± 457.7 mm^3 | 61.3% | 210.9 mm^3 and 210.9 ± 103.3 mm^3
